Data on 3 compounds can be found in patent US20240067702A1, “LACTAM-MODIFIED P[…]” (DONGBAO PURPLE STAR (HANGZHOU) BIOPHARMACEUTICAL CO., LTD., priority 2020, published 2024).

*1 amine or outer side, *2 acyl side, *3 side chain or, on linkers, in order; H or OH if unused. Where a SMILES comes first, the peptide text is derived from it. Bridges are numbered along the chain shown (N, C = ends). Side-chain parts run from the residue outwards. [ ]: non-standard residue; d: D form. The star is where a group is joined. C20 diacid = O=C(O)CCCCCCCCCCCCCCCCCCC(=O)*; γGlu = O=C(O)[C@H](CCC(=O)[*:2])N[*:1]; AEEA = NCCOCCOCC(=O)O; Aib = CC(C)(N)C(=O)O

A short description of series [1]: Plasma protein binding (PPB) test, mouse. The class given is in vitro ADME. The conditions noted are these: for fraction unbound at 4 h, 0.2 μM: pH 7.4, ultracentrifugation. How it is done: To study the binding of the test compounds to human/mouse plasma albumin.
1. Matrix preparation: On the day of the experiment, the plasma was thawed in cold water and centrifuged at 3220 rpm for 5 min to remove all blood clots. The pH of the obtained plasma was measured and adjusted to 7.4±0.1 using 1% phosphoric acid or 1N sodium hydroxide as needed.
2. Dilution steps of the test compounds: The test compounds were dissolved in dimethyl sulfoxide (DMSO) to prepare stock solutions at concentrations of 10 mM and 2 mM, respectively. A 40 μM working solution was prepared by diluting 2 μL of the stock solution (2 mM) with 98 μL of DMSO. A 400 μM working solution of the control compound was prepared by diluting 10 μL of the stock solution with 240 μL of DMSO. The working solution of the compound (5 μL) was mixed with the blank matrix (995 μL) at a ratio of 1:200 to prepare the loading matrix.
3.1 An equal amount of 30 μL of the loading matrix (n=2) was transferred to the sample collection plate to prepare samples of time 0 (TO) for residue determination. The samples were immediately matched to the corresponding blank buffer in a final volume of 60 μL with a 1:1 volume ratio of plasma to buffer in each well. Then, 60 μL of 4% H3PO4 in H2O and 480 μL of stop solution containing an internal standard were then added to the TO samples of the test compounds. They were then stored at 2-8° C. with other samples pending for further processing.
3.2 The remaining plasma samples were pre-incubated in a carbon dioxide incubator at 37±1° C. for 30 min. The prepared protein-free samples (F samples) and loading matrix samples (230 μL) were transferred to polycarbonate tubes (n=2) and ultracentrifuged at 37° C. and 155000×g (35000 rpm) for 4 hours.
3.3 To prepare T samples (test samples), an additional matrix-containing sample was transferred to a separate 96-well plate (sample incubation plate) and incubated at 37° C. for 4 hours.
3.4 After centrifugation, 30 μL of protein-free sample and 30 μL of T sample were transferred from the second layer of supernatant (below the upper layer) to a new sample collection plate. Each sample was mixed with the corresponding blank buffer or matrix in a final volume of 60 μL with a matrix:buffer volume ratio of 1:1. 60 μL of 4% H3PO4 aqueous solution and 480 μL of stop solution (containing internal standard) were added to all samples. The mixture was centrifuged at 4000 rpm for 20 min, and 100 μL of the supernatant of each sample was taken for LC-MS/MS analysis.

Series [2] is described as follows: Pharmacokinetic evaluation in SD rats. The note with it: rat, 0.048 mg/kg, single SC 0.048 mpk; for half-life: read-out: Half-life T1/2 (converted); for AUC(0-t): read-out: SC Concentration Integral AUC0-72 h; for Cmax: read-out: Maximum Plasma Concentration. The class given is in vivo. The procedure:
To test the pharmacokinetics of compounds in SD rats in vivo
The pharmacokinetic characteristics of the compounds in rodents after subcutaneous injection were tested according to the standard protocol. In the experiment, the candidate compounds were formulated into clear solutions, and a single subcutaneous injection (SC, 0.048 mpk) was given to the rats. The injection vehicle was citrate buffer (20 mM, pH=7). Whole blood was collected and prepared to obtain plasma. Drug concentration was analyzed by LC-MS/MS method, and pharmacokinetic parameters were calculated by Phoenix WinNonlin software.

A short description of series [3]: Kidney homogenate stability (BHS) test. The note with it: normal mouse kidney homogenate, 37° C., read-out: BHS (T1/2 (min)). It is filed as in vitro ADME. How it is done:
To study the stability of the test compounds in normal mouse kidney homogenate.
1. Before the experiment, the frozen kidney homogenate was thawed in a 37° C. water bath.
2. Test compounds: 10 mM stock solution was diluted with DMSO to prepare 1 mM intermediate solution;
3. test compounds: 1 mM intermediate solution was diluted with DMSO to prepare 50 μM dosing solution;
4. at each time point (0, 10, 30, 60, 120, 180, 240 min), 100 μL of 4% H3PO4 and 800 μL of stop solution were added to precipitate the protein, and mixed thoroughly.
5. The samples were centrifuged at 4000 rpm for 10 min, and 100 μL of supernatant was taken from each well to the plate. The samples were shaken at 800 rpm for approximately 10 min before submitting for LC-MS/MS test.

Series [4] in a line: Plasma stability (PLS) test, human plasma. It is filed as in vitro ADME. The note with it: up to 120 min, read-out: PLS (H/M) T1/2, H; for half-life at 2 μM: pH 7.4, 37° C.
The nature of series [5]: Pharmacokinetic evaluation in cynomolgus monkeys. It is filed as in vivo. The note with it: cynomolgus monkey, 0.02 mg/kg, single SC 0.02 mpk; for half-life: read-out: Half-life T1/2 (converted); for AUC(0-t): read-out: SC Concentration Integral AUC0-240 h. How it is done:
To test the pharmacokinetics of compounds in cynomolgus monkeys in vivo
The pharmacokinetic characteristics of the compounds in mammals after intravenous injection and subcutaneous injection were tested according to the standard protocol. In the experiment, the candidate compounds were formulated into clear solutions, and a single subcutaneous injection (SC, 0.02 mpk) was given to the cynomolgus monkeys. The vehicle for subcutaneous injection was citrate buffer (20 mM, pH=7). Whole blood was collected and prepared to obtain plasma. Drug concentration was analyzed by LC-MS/MS method, and pharmacokinetic parameters were calculated by Phoenix WinNonlin software.

As to `CC[C@H](C)[C@H](NC(=O)[C@H](CC(C)C)NC(=O)[C@H](Cc1c[nH]c2ccccc12)NC(=O)[C@@H]1CCC(=O)NCCCC[C@H](NC(=O)[C@H](CCC(N)=O)NC(=O)[C@H](C)NC(=O)[C@H](CCCCNC(=O)COCCOCCNC(=O)COCCOCCNC(=O)CC[C@H](NC(=O)CC[C@H](NC(=O)CCCCCCCCCCCCCCCCCCC(=O)O)C(=O)O)C(=O)O)NC(=O)[C@H](CCCCN)NC(=O)[C@H](CC(=O)O)NC(=O)[C@H](CC(C)C)NC(=O)C(C)(C)NC(=O)[C@@H](NC(=O)[C@H](CO)NC(=O)[C@H](Cc2ccc(O)cc2)NC(=O)[C@H](CC(=O)O)NC(=O)[C@H](CO)NC(=O)[C@@H](NC(=O)[C@H](Cc2ccccc2)NC(=O)[C@@H](NC(=O)CNC(=O)[C@H](CCC(=O)O)NC(=O)C(C)(C)NC(=O)[C@@H](N)Cc2ccc(O)cc2)[C@@H](C)O)[C@@H](C)O)[C@@H](C)CC)C(=O)N[C@@H](C)C(=O)N[C@@H](Cc2ccccc2)C(=O)N[C@@H](C(C)C)C(=O)N1)C(=O)N[C@@H](C)C(=O)NCC(=O)NCC(=O)N1CCC[C@H]1C(=O)N[C@@H](CO)C(=O)N[C@@H](CO)C(=O)NCC(=O)N[C@@H](C)C(=O)N1CCC[C@H]1C(=O)N1CCC[C@H]1C(=O)N1CCC[C@H]1C(=O)N[C@@H](CO)C(N)=O` [WX-002] (H-Y[Aib]EGTFTSDYSI[Aib]LDKK([AEEA-AEEA-γGlu-γGlu-C20 diacid])AQKAFVEWLIAGGPSSGAPPPS-NH2; lactam 20-24), the fraction unbound in series [1] (ultracentrifugation, read-out: PPB % unbound (H/M)) is 0.0021. The half-life in series [2] (in vivo) was 17 h; in series [3] (tissue homogenate), 20 min; in series [4] (2 μM, 37° C.), more than 4.82 h; in series [5] (in vivo), 81 h. For the same compound, the AUC(0-t) in series [2] (in vivo) stood at 1.32 µM·h; in series [5] (in vivo), 4.58 µM·h. Besides, the Cmax in series [2] (plasma) was 14 nM; in series [5] (in vivo) it was 33 nM. Also, the Tmax in series [5] (in vivo) turned out to be 29 h.
In turn, `CC[C@H](C)[C@H](NC(=O)[C@H](CC(C)C)NC(=O)[C@H](Cc1c[nH]c2ccccc12)NC(=O)[C@@H]1CCC(=O)NCCCC[C@H](NC(=O)[C@H](CCC(N)=O)NC(=O)[C@H](C)NC(=O)[C@H](CCCCNC(=O)COCCOCCNC(=O)COCCOCCNC(=O)CC[C@H](NC(=O)CCCCCCCCCCCCCCCCCCC(=O)O)C(=O)O)NC(=O)[C@H](CCCCN)NC(=O)[C@H](CC(=O)O)NC(=O)[C@H](CC(C)C)NC(=O)C(C)(C)NC(=O)[C@@H](NC(=O)[C@H](CO)NC(=O)[C@H](Cc2ccc(O)cc2)NC(=O)[C@H](CC(=O)O)NC(=O)[C@H](CO)NC(=O)[C@@H](NC(=O)[C@H](Cc2ccccc2)NC(=O)[C@@H](NC(=O)CNC(=O)[C@H](CCC(=O)O)NC(=O)C(C)(C)NC(=O)[C@@H](N)Cc2ccc(O)cc2)[C@@H](C)O)[C@@H](C)O)[C@@H](C)CC)C(=O)N[C@@H](C)C(=O)N[C@@H](Cc2ccccc2)C(=O)N[C@@H]([C@@H](C)CC)C(=O)N1)C(=O)N[C@@H](C)C(=O)NCC(=O)NCC(=O)N1CCC[C@H]1C(=O)N[C@@H](CO)C(=O)N[C@@H](CO)C(=O)NCC(=O)N[C@@H](C)C(=O)N1CCC[C@H]1C(=O)N1CCC[C@H]1C(=O)N1CCC[C@H]1C(=O)N[C@@H](CO)C(N)=O` [WX-006] (H-Y[Aib]EGTFTSDYSI[Aib]LDKK([AEEA-AEEA-γGlu-C20 diacid])AQKAFIEWLIAGGPSSGAPPPS-NH2; lactam 20-24) yielded a fraction unbound at 4 h, 0.2 μM in series [1] of 0.0035. Also, in series [2] (plasma), the half-life was 10 h, the Cmax amounted to 16 nM and the AUC(0-t) was 0.846 µM·h. Moreover, the half-life in series [3] worked out at 234 min. For the same compound, the half-life at 2 μM in series [4] was more than 4.82 h. Besides, in series [5] (plasma), the Cmax was found to be 30 nM, the Tmax was found to be 29 h, the half-life is 72.4 h and the AUC(0-t) came out at 3.64 µM·h.
In turn, `CC[C@H](C)[C@H](NC(=O)[C@H](CC(C)C)NC(=O)[C@H](Cc1c[nH]c2ccccc12)NC(=O)[C@@H]1CCC(=O)NCCCC[C@H](NC(=O)[C@H](CCC(N)=O)NC(=O)[C@H](C)NC(=O)[C@H](CCCCNC(=O)COCCOCCNC(=O)COCCOCCNC(=O)CC[C@H](NC(=O)CCCCCCCCCCCCCCCCCCC(=O)O)C(=O)O)NC(=O)[C@H](CCCCN)NC(=O)[C@H](CC(=O)O)NC(=O)[C@H](CC(C)C)NC(=O)C(C)(C)NC(=O)[C@@H](NC(=O)[C@H](CO)NC(=O)[C@H](Cc2ccc(O)cc2)NC(=O)[C@H](CC(=O)O)NC(=O)[C@H](CO)NC(=O)[C@@H](NC(=O)[C@H](Cc2ccccc2)NC(=O)[C@@H](NC(=O)CNC(=O)[C@H](CCC(=O)O)NC(=O)C(C)(C)NC(=O)[C@@H](N)Cc2ccc(O)cc2)[C@@H](C)O)[C@@H](C)O)[C@@H](C)CC)C(=O)N[C@@H](CCC(=O)O)C(=O)N[C@@H](Cc2ccccc2)C(=O)N[C@@H](C(C)C)C(=O)N1)C(=O)N[C@@H](C)C(=O)NCC(=O)NCC(=O)N1CCC[C@H]1C(=O)N[C@@H](CO)C(=O)N[C@@H](CO)C(=O)NCC(=O)N[C@@H](C)C(=O)N1CCC[C@H]1C(=O)N1CCC[C@H]1C(=O)N1CCC[C@H]1C(=O)N[C@@H](CO)C(N)=O` [WX-005] (H-Y[Aib]EGTFTSDYSI[Aib]LDKK([AEEA-AEEA-γGlu-C20 diacid])AQKEFVEWLIAGGPSSGAPPPS-NH2; lactam 20-24) showed a fraction unbound at 4 h, 0.2 μM in series [1] of 0.0022. Further, in series [2] (plasma), the half-life was 17 h, the Cmax is 14 nM and the AUC(0-t) came out at 1.33 µM·h. Also, the half-life in series [3] turned out to be 21 min. The half-life at 2 μM in series [4] was more than 4.82 h. In series [5] (plasma), the Cmax was determined as 31 nM, the Tmax turned out to be 40 h, the half-life was 98 h and the AUC(0-t) was 4.55 µM·h.
